According to patent publication US6710049B2, “Azole compounds as anti-fungal agents” (Ranbaxy Laboratories Limited, priority 2000, dated 2004):
Values after ≈ are worked out from the molar mass of the structure shown.

What was measured:
Aspergillus species = details: isolates of Aspergillus species; cited from earlier work
T. mentagrophyte = assay: Activity against dermatophytes; format: cell-based; design: unit not given here
Excerpt: (§1) The in-vitro evaluation of the antifungal activity of the compounds can be performed by determining the minimum inhibitory concentration (MIC) as shown in Table 1 which is the concentration of the test compound in Rosewell Park Memorial Institute (RPMI) 1640 liquid medium buffered with 3-(Morpholino)propanesulphonic acid (MOPS) to pH 7, at which there is significant inhibition of the particular fungi. In practice the National Committee for Clinical Laboratory Standard (NCCLS) M27A document for Candida and Cryptococcus and M38P for Aspergillus was used to determine the MIC against yeast and filamentous fungi with suitable modifications for dermatophytes to other filamentous fungi. Three quality control strains were included each time the MIC were determined and readings recorded only when the Quality Control results fell into the acceptable range. After MIC results had been recorded, 100 μl from each of the well showing no growth was spread over Sabouraud Dextrose Agar (SDA) to determine the minimum fungicidal concentration (MFC) as shown in Table 2.
(§2) A comparative in vitro and in vivo biologically activity data of the compound of our invention, 2-{[1R,2R]-2-(2,4-Difluorophenyl)-2-hydroxy-1-methyl-3-(1H-1,2,4-triazole-1-yl)propyl}-4-[(2′,2′,3′,3′-tetrafluoropropoxyphenyl)-3-(2H,4H)-1,2,4-thiotriazolone (Compound No. 3) with 2-[(1R,2R)-2-(2,4-difluorophenyl)-2-hydroxy-1-methyl-3-(1H-1,2,4-triazol-1-yl)propyl]-4-(2′,2′,3′,3′-tetraflouropropoxyphenyl)-3(2H,4H)-1,2,4-triazolone (TAK 187) and standard antifungal pharmaceuticals is given below: […]

T. rubrum = assay: Activity against dermatophytes; format: cell-based; design: unit not given here
Excerpt: as §1, §2

[1] = target: lanosterol 14α-de-methylase; details: the target enzyme in the fungus; cited from earlier work

Compound | minimum inhibitory concentration (MIC) values (Aspergillus species) | Activity against dermatophytes (T. mentagrophyte) | Activity against dermatophytes (T. rubrum) | IC50 [1]
OC(Cn1cncn1)(Cn1cncn1)c1ccc(F)cc1F [Fluconazole] | 400 µg/mL (≈ 1310 µM) | >128 | >128 | 4.8 µM
CCC(C)n1ncn(-c2ccc(N3CCN(c4ccc(OCC5COC(Cn6cncn6)(c6ccc(Cl)cc6Cl)O5)cc4)CC3)cc2)c1=O (stereo not drawn) [Itraconazole] | – | 0.125 | 0.03 | –
